We go through eight compounds from EP0233686A2, “Bis phenyl ethanol amines and bis phenyoxypropanolamines having a beta-agonist activity” (BEECHAM GROUP PLC, priority 1986, dated 1987).

For the assay, the system named is Female CFLP mice. In words: Hypoglycaemic activity: oral compound, then subcutaneous glucose load in fasted mice; area under the blood glucose curve over 2 hours compared with water controls. The following applies: Mus musculus, mice fasted for 24 hours, glucose 1g/kg s.c. 30 minutes after dosing, 2 hour AUC vs water controls, read-out: % reduction in area under blood glucose curve; for inhibition in vivo at 3 µmol/kg: dose 3 µmol/Kg p.o. It is filed as in vivo. As for the experimental part: Female CFLP mice, weighing approximately 25g, were fasted for 24 hours prior to the study. The compounds under study were administered orally as an aqueous solution to each of 6 mice. 30 minutes later a blood sample (20ul) was obtained from the tail for the analysis of blood glucose. Immediately after taking this blood sample, glucose (lg/kg body weight) was administered subcutaneously to each mouse. 6 mice were -given water as a control. Blood samples were then obtained from each mouse at 30 minute intervals for 120 minutes. Compounds that produced a significant (p>0.05) reduction of blood glucose, compared with control mice given water, at any time interval were considered active. The area under the blood glucose curve over the 2 hour period after the administration of the glucose was calculated for each compound and compared with the value for control animals.

SMILES strings stand for the structures. Where a name gives a salt, the structure may show the parent alone.

For `C[C@H](Cc1ccc(OCCCCCCCCCOc2ccc(C[C@@H](C)NC[C@H](O)c3cccc(Cl)c3)cc2)cc1)NC[C@H](O)c1cccc(Cl)c1` [Example 13, [R,R,R,R,]-α,α'[1,9-Nonanediylbis[oxy-4,1-phenylene (1-methyl-2,1-ethanediyl)iminomethylene]]bis[3-chlorobenzenemethanol], dihydrochloride], the inhibition in vivo at 3 µmol/kg is 34%.
On the same count and under the same terms, the same measure for `C[C@H](Cc1ccc(S(=O)(=O)c2ccc(C[C@@H](C)NC[C@H](O)c3cccc(Cl)c3)cc2)cc1)NC[C@H](O)c1cccc(Cl)c1` [Example 6, [R,R,R,R]-α,α'-[Sulphonylbis[4,1-phenylene(1-methyl-2,1-ethanediyl)iminomethylene]]bis|3-chlorobenzenemethanol] dihydrochloride]: 30%.
Take `C[C@H](Cc1ccc(CCCCCCc2ccc(C[C@@H](C)NC[C@H](O)c3cccc(Cl)c3)cc2)cc1)NC[C@H](O)c1cccc(Cl)c1` [Example 19, [R,R,R,R]-α,α'-[1,6-Hexanediylbis[4,1-phenylene (1-methyl-2,1-ethanediyl)iminomethylene]] bis[3-chlorobenzenemethanol], dihydrochloride]: the inhibition in vivo at 10 µmol/kg (dose 10 µmol/Kg p.o.) turned out to be 11%.
As for `C[C@H](Cc1ccc(OCCCCCCOc2ccc(C[C@@H](C)NC[C@H](O)c3cccc(Cl)c3)cc2)cc1)NC[C@H](O)c1cccc(Cl)c1` [Example 3, [R,R,R,R]-α,α'[1,6-Hexanediylbis[oxy-4,1-phenylene(1-methyl-2,1-ethanediyl)iminomethylene]]bis[3-chlorobenzenemethanol], dihydrochloride], the inhibition in vivo at 1 µmol/kg (dose 1.0 µmol/Kg p.o.) worked out at 55%.
For the compound `C[C@H](Cc1ccc(C(O)(CO)c2ccc(C[C@@H](C)NC[C@H](O)c3cccc(Cl)c3)cc2)cc1)NC[C@H](O)c1cccc(Cl)c1` [Example 7, [R,R,R,R]-1,1-di[4-[2-[[2-(3-chlorophenyl)-2-hydroxyethyl]amino]propyl]phenyl]-1,2-ethanediol, dihydrochloride], the inhibition in vivo at 2.5 µmol/kg (dose 2.5 µmol/Kg p.o.) was 17%.
For `C[C@H](Cc1ccc(OCCCCCOc2ccc(C[C@@H](C)NC[C@H](O)c3cccc(Cl)c3)cc2)cc1)NC[C@H](O)c1cccc(Cl)c1` [Example 20, [R,R,R,R]-α,α'-[1,5-Pentanediylbis[oxy-4,1-phenylene (1-methyl-2,1-ethanediyl)iminomethylene]] bis[3-chlorobenzenemethanol], dihydrochloride], the inhibition in vivo at 0.1 µmol/kg (dose 0.1 µmol/Kg p.o.) was found to be 51%.
Take `C[C@H](Cc1ccc(CNCCCCNCc2ccc(C[C@@H](C)NC[C@H](O)c3cccc(Cl)c3)cc2)cc1)NC[C@H](O)c1cccc(Cl)c1` [Example 16, [R,R,R,R]-α,α'-[1,4-Butanediylbis[iminomethylene-4,1-phenylene(1-methyl-2,1-ethanediyl)iminomethylene]]bis [3-chlorobenzenemethanol, tetrahydrochloride]: the inhibition in vivo at 3 µmol/kg is 8%.
As to `C[C@H](Cc1ccc(OCC(=O)NCCNC(=O)COc2ccc(C[C@@H](C)NC[C@H](O)c3cccc(Cl)c3)cc2)cc1)NC[C@H](O)c1cccc(Cl)c1` [Example 1, [R,R,R,R]-N,N'-(1,2-Ethanediyl)bis[2-[4-[2-[(2-(3-chlorophenyl)-2-hydroxyethyl)amino]propyl]phenoxy]acetamide]], the inhibition in vivo at 12.5 µmol/kg (dose 12.5 µmol/Kg p.o.) stood at 43%.
